Measurements as given in patent US6982348B2, “Aminoethanol derivatives” (Takeda Pharmaceutical Company Limited, priority 2001, dated 2006).

SMILES | melting point [°C]
O=C(N[C@H](Cc1ccc(C(F)(F)F)cc1)[C@@H](O)c1ccc(F)cc1)c1cccc2c1OCC2 (racemic) [Example 77, N-((1RS,2SR)-2-(4-fluorophenyl)-2-hydroxy-1-((4-(trifluoromethyl)phenyl)methyl)ethyl)-2,3-dihydro-1-benzofuran-7-carboxamide] | 121 to 122
O=C(CBr)N[C@H](Cc1ccc(C(F)(F)F)cc1)[C@@H](O)c1ccc(F)cc1 (racemic) [Example 78, 2-bromo-N-((1RS,2SR)-2-(4-fluorophenyl)-2-hydroxy-1-((4-(trifluoromethyl)phenyl)methyl)ethyl)acetamide] | 151 to 152
CCCCc1ccc(C(=O)N[C@H](Cc2ccc(C(F)(F)F)cc2)[C@@H](O)c2ccc(F)cc2)cc1 (racemic) [Example 79, 4-butyl-N-((1RS,2SR)-2-(4-fluorophenyl)-2-hydroxy-1-((4-(trifluoromethyl)phenyl)methyl)ethyl)benzamide] | 171 to 172
O=C(N[C@H](Cc1ccc(C(F)(F)F)cc1)[C@@H](O)c1ccc(F)cc1)c1cccc2cccnc12 (racemic) [Example 80, N-((1RS,2SR)-2-(4-fluorophenyl)-2-hydroxy-1-((4-(trifluoromethyl)phenyl)methyl)ethyl)-8-quinolinecarboxamide] | 83 to 84
O=C(N[C@H](Cc1ccc(C(F)(F)F)cc1)[C@@H](O)c1ccc(F)cc1)c1ccc(C(F)(F)F)cc1 (racemic) [Example 81, N-((1RS,2SR)-2-(4-fluorophenyl)-2-hydroxy-1-((4-(trifluoromethyl)phenyl)methyl)ethyl)-4-(trifluoromethyl)benzamide] | 228 to 229
O=C(Cc1cccc2ccccc12)N[C@H](Cc1ccc(C(F)(F)F)cc1)[C@@H](O)c1ccc(F)cc1 (racemic) [Example 82, N-((1RS,2SR)-2-(4-fluorophenyl)-2-hydroxy-1-((4-(trifluoromethyl)phenyl)methyl)ethyl)-2-(1-naphthalenyl)acetamide] | 186 to 187
CCOc1ccc2ccccc2c1C(=O)N[C@H](Cc1ccc(C(F)(F)F)cc1)[C@@H](O)c1ccc(F)cc1 (racemic) [Example 83, 2-(ethyloxy)-N-((1RS,2SR)-2-(4-fluorophenyl)-2-hydroxy-1-((4-(trifluoromethyl)phenyl)methyl)ethyl)-1-naphthalenecarboxamide] | 157 to 158
O=C(N[C@H](Cc1ccc(C(F)(F)F)cc1)[C@@H](O)c1ccc(F)cc1)c1c2ccccc2cc2ccccc12 (racemic) [Example 84, N-((1RS,2SR)-2-(4-fluorophenyl)-2-hydroxy-1-((4-(trifluoromethyl)phenyl)methyl)ethyl)-9-anthracenecarboxamide] | 251 to 252
O=C(N[C@H](Cc1ccc(C(F)(F)F)cc1)[C@@H](O)c1ccc(F)cc1)c1cccc2c1C(=O)c1ccccc1-2 (racemic) [Example 85, N-((1RS,2SR)-2-(4-fluorophenyl)-2-hydroxy-1-((4-(trifluoromethyl)phenyl)methyl)ethyl)-9-oxo-9H-fluorene-1-carboxamide] | 185 to 186
O=C(N[C@H](Cc1ccc(C(F)(F)F)cc1)[C@@H](O)c1ccc(F)cc1)c1cc(C(F)(F)F)cc(C(F)(F)F)c1 (racemic) [Example 86, N-((1RS,2SR)-2-(4-fluorophenyl)-2-hydroxy-1-((4-(trifluoromethyl)phenyl)methyl)ethyl)-3,5-bis(trifluoromethyl)benzamide] | 150 to 151
O=C(N[C@H](Cc1ccc(C(F)(F)F)cc1)[C@@H](O)c1ccc(F)cc1)c1cccc2cccc(Br)c12 (racemic) [Example 87, 8-bromo-N-((1RS,2SR)-2-(4-fluorophenyl)-2-hydroxy-1-((4-(trifluoromethyl)phenyl)methyl)ethyl)-1-naphthalenecarboxamide] | 191 to 192
O=C(N[C@H](Cc1ccc(C(F)(F)F)cc1)[C@@H](O)c1ccc(F)cc1)c1ccc(C(=O)c2ccc(F)cc2)cc1 (racemic) [Example 88, 4-(4-fluorobenzoyl)-N-[(1RS,2SR)-2-(4-fluorophenyl)-2-hydroxy-1-[4-(trifluoromethyl)benzyl]ethyl]benzenecarboxamide] | 156 to 157
O=C(N[C@H](Cc1ccc(C(F)(F)F)cc1)[C@@H](O)c1ccc(F)cc1)c1ccc(/C=C\c2ccc(Cl)cc2)cc1 (racemic) [Example 89, 4-[(Z)-2-(4-chlorophenyl)ethenyl]-N-[(1RS,2SR)-2-(4-fluorophenyl)-2-hydroxy-1-[4-(trifluoromethyl)benzyl]ethyl]benzenecarboxamide] | 193 to 194
O=C(N[C@H](Cc1ccc(C(F)(F)F)cc1)[C@@H](O)c1ccc(F)cc1)c1ccc(Oc2ccc(Cl)cc2)cc1 (racemic) [Example 90, 4-(4-chlorophenoxy)-N-[(1RS,2SR)-2-(4-fluorophenyl)-2-hydroxy-1-[4-(trifluoromethyl)benzyl]ethyl]benzenecarboxamide] | 188 to 189
COCc1oc(-c2ccccc2)c(C(=O)N[C@H](Cc2ccc(C(F)(F)F)cc2)[C@@H](O)c2ccc(F)cc2)c1-c1ccc(F)cc1 (racemic) [Example 91, 4-(4-fluorophenyl)-N-[(1RS,2SR)-2-(4-fluorophenyl)-2-hydroxy-1-[4-(trifluoromethyl)benzyl]ethyl]-5-[(methoxy)methyl]-2-phenylfuran-3-carboxamide] | 204 to 206
O=C(N[C@H](Cc1ccc(C(F)(F)F)cc1)[C@@H](O)c1ccc(F)cc1)c1ccc(CCc2ccc(Cl)cc2)cc1 (racemic) [Example 92, 4-[2-(4-chlorophenyl)ethyl]-N-[(1RS,2SR)-2-(4-fluorophenyl)-2-hydroxy-1-[4-(trifluoromethyl)benzyl]ethyl]benzenecarboxamide] | 211 to 212
O=C(N[C@H](Cc1ccc(C(F)(F)F)cc1)[C@@H](O)c1ccc(F)cc1)c1ccc([C@@H]2O[C@@H]2c2ccc(Cl)cc2)cc1 (racemic) [Example 93, 4-[cis-3-(4-chlorophenyl)oxiran-2-yl]-N-[(1RS,2SR)-2-(4-fluorophenyl)-2-hydroxy-1-[4-(trifluoromethyl)benzyl]ethyl]benzenecarboxamide] | 162 to 166
O=C(N[C@H](Cc1ccc(C(F)(F)F)cc1)[C@@H](O)c1ccc(F)cc1)c1ccc(/C=C\c2ccccc2Cl)cc1 (racemic) [Example 96, 4-[(Z)-2-(2-chlorophenyl)ethenyl]-N-[(1RS,2SR)-2-(4-fluorophenyl)-2-hydroxy-1-[4-(trifluoromethyl)benzyl]ethyl]benzenecarboxamide] | 153 to 154
O=C(N[C@H](Cc1ccc(C(F)(F)F)cc1)[C@@H](O)c1ccc(F)cc1)c1c(CSc2ccccc2)ccc2ccccc12 (racemic) [Example 97, N-[(1RS,2SR)-2-(4-fluorophenyl)-2-hydroxy-1-[4-(trifluoromethyl)benzyl]ethyl]-2-[(phenylthio)methyl]naphthalene-1-carboxamide] | 102 to 104
Cn1cc(C(=O)N[C@H](Cc2ccc(C(F)(F)F)cc2)[C@@H](O)c2ccc(F)cc2)c2ccccc21 (racemic) [Example 98, N-[(1RS,2SR)-2-(4-fluorophenyl)-2-hydroxy-1-[4-(trifluoromethyl)benzyl]ethyl]-1-methyl-1H-indole-3-carboxamide] | 129 to 131
O=C(CCCCc1ccccc1)N[C@H](Cc1ccc(C(F)(F)F)cc1)[C@@H](O)c1ccc(F)cc1 (racemic) [Example 99, N-((1RS,2SR)-2-(4-fluorophenyl)-2-hydroxy-1-((4-(trifluoromethyl)phenyl)methyl)ethyl)-5-phenylpentanamide] | 152 to 153
COc1ccc(C(=O)N[C@H](Cc2ccc(C(F)(F)F)cc2)[C@@H](O)c2ccc(F)cc2)c2ccccc12 (racemic) [Example 101, N-[(1RS,2SR)-2-(4-fluorophenyl)-2-hydroxy-1-[4-(trifluoromethyl)benzyl]ethyl]-4-methoxynaphthalene-1-carboxamide] | 227 to 228
O=C(N[C@H](Cc1ccc(C(F)(F)F)cc1)[C@@H](O)c1ccc(F)cc1)c1cc([N+](=O)[O-])cc2ccccc12 (racemic) [Example 102, N-[(1RS,2SR)-2-(4-fluorophenyl)-2-hydroxy-1-[4-(trifluoromethyl)benzyl]ethyl]-3-nitronaphthalene-1-carboxamide] | 231 to 232
NC(=O)c1ccc(C(=O)N[C@H](Cc2ccc(C(F)(F)F)cc2)[C@@H](O)c2ccc(F)cc2)c2ccccc12 (racemic) [Example 104, N1-[(1RS,2SR)-2-(4-fluorophenyl)-2-hydroxy-1-[4-(trifluoromethyl)benzyl]ethyl]naphthalene-1,4-dicarboxamide] | 255 to 256
O=C(N[C@H](Cc1ccc(C(F)(F)F)cc1)[C@@H](O)c1ccc(F)cc1)c1ccc(CO)c2ccccc12 (racemic) [Example 105, N-((1RS,2SR)-2-(4-fluorophenyl)-2-hydroxy-1-((4-(trifluoromethyl)phenyl)methyl)ethyl)-4-(hydroxymethyl)-1-naphthalenecarboxamide] | 202 to 203
O=C(N[C@H](Cc1ccc(C(F)(F)F)cc1)[C@@H](O)c1ccc(F)cc1)c1cccc(Oc2ccccc2)c1 (racemic) [Example 107, N-((1RS,2SR)-2-(4-fluorophenyl)-2-hydroxy-1-((4-(trifluoromethyl)phenyl)methyl)ethyl)-3-phenoxybenzamide] | 144 to 145
O=C(CC(F)(F)F)N[C@H](Cc1ccc(C(F)(F)F)cc1)[C@@H](O)c1ccc(F)cc1 (racemic) [Example 109, N-[(1RS,2SR)-2-(4-fluorophenyl)-2-hydroxy-1-[4-(trifluoromethyl)benzyl]ethyl]-3,3,3-trifluoropropionamide] | 179 to 180
O=C(N[C@H](Cc1ccc(C(F)(F)F)cc1)[C@@H](O)c1ccc(F)cc1)C(c1ccccc1)C1CCCC1 (mixture of isomers) [Example 110, 2-cyclopentyl-N-[(1RS,2SR)-2-(4-fluorophenyl)-2-hydroxy-1-[4-(trifluoromethyl)benzyl]ethyl]-2-phenylacetamide] | 201 to 202
